Structures can show the parent of a compound that is named as a salt. ± gives the uncertainty stated by the source.
System: HepG2 (L1.3 5'UTR promoter firefly luciferase reporter)
Experiment: L1 promoter activity (FLuc/RLuc) relative to DMSO vehicle control (% of control); higher = stronger L1 promoter activation
Description: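 HepG2 cells in 96-well plates were cotransfected with pGL4.11-L1.3 5'UTR (firefly luciferase driven by the human L1.3 5'UTR promoter) and pGL4.74 (HSV-TK Renilla luciferase internal control), then treated with compound for 6 or 24 h. FLuc/RLuc ratio was normalised to the DMSO vehicle control (% of control); concentrations where RLuc fell below 50% of control were excluded (N.D.). Mean of at least two independent experiments in duplicate or quadruplicate.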

[1] = concentration (uM unless unit written): 125, treatment time: 6 h
[2] = concentration (uM unless unit written): 125, treatment time: 24 h
[3] = concentration (uM unless unit written): 50, treatment time: 6 h
[4] = concentration (uM unless unit written): 50, treatment time: 24 h
[5] = concentration (uM unless unit written): 500, treatment time: 6 h
[6] = concentration (uM unless unit written): 1000, treatment time: 6 h
[7] = concentration (uM unless unit written): 1, treatment time: 6 h
[8] = concentration (uM unless unit written): 1, treatment time: 24 h
[9] = concentration (uM unless unit written): 10, treatment time: 6 h
[10] = concentration (uM unless unit written): 10, treatment time: 24 h
[11] = concentration (uM unless unit written): 100, treatment time: 6 h
[12] = concentration (uM unless unit written): 100, treatment time: 24 h
[13] = concentration (uM unless unit written): 250, treatment time: 6 h
[14] = concentration (uM unless unit written): 250, treatment time: 24 h
[15] = concentration (uM unless unit written): 500, treatment time: 24 h
[16] = concentration (uM unless unit written): 25, treatment time: 6 h
[17] = concentration (uM unless unit written): 25, treatment time: 24 h
[18] = concentration (uM unless unit written): 3, treatment time: 6 h
[19] = concentration (uM unless unit written): 3, treatment time: 24 h
[20] = concentration (uM unless unit written): 6, treatment time: 6 h
[21] = concentration (uM unless unit written): 6, treatment time: 24 h
[22] = concentration (uM unless unit written): 2.5, treatment time: 6 h
[23] = concentration (uM unless unit written): 2.5, treatment time: 24 h
[24] = concentration (uM unless unit written): 2500, treatment time: 6 h
[25] = concentration (uM unless unit written): 5, treatment time: 6 h
[26] = concentration (uM unless unit written): 5, treatment time: 24 h

## CCCCc1nc(Cl)c(CO)n1Cc1ccc(-c2ccccc2-c2nnn[nH]2)cc1 [Losartan]
Concentration (uM unless unit written): 15.625, treatment time: 6 h
  L1 promoter activity: 93.6 ± 6.2
Concentration (uM unless unit written): 15.625, treatment time: 24 h
  L1 promoter activity: 92.6 ± 10
Concentration (uM unless unit written): 31.25, treatment time: 6 h
  L1 promoter activity: 106 ± 7.8
Concentration (uM unless unit written): 31.25, treatment time: 24 h
  L1 promoter activity: 102 ± 10
Concentration (uM unless unit written): 62.5, treatment time: 6 h
  L1 promoter activity: 109 ± 8.7
Concentration (uM unless unit written): 62.5, treatment time: 24 h
  L1 promoter activity: 98.6 ± 11
[1]
  L1 promoter activity: 101 ± 10
[2]
  L1 promoter activity: 95.1 ± 7.4

## Cc1cccc(Nc2ccccc2C(=O)O)c1C [Mefenamic acid]
[3]
  L1 promoter activity: 128 ± 8.3
[4]
  L1 promoter activity: 91 ± 5.5
[5]
  L1 promoter activity: 113 ± 19
[6]
  L1 promoter activity: 93.8 ± 13

## CC1=CC(=O)c2ccccc2C1=O [Menadione]
Concentration (uM unless unit written): 17.5, treatment time: 6 h
  L1 promoter activity: 116 ± 11

## O=C1NC(=S)NC(=O)C1C(=O)Nc1ccccc1 [Merbarone]
[7]
  L1 promoter activity: 112 ± 12
[8]
  L1 promoter activity: 113 ± 13
[9]
  L1 promoter activity: 140 ± 17
[10]
  L1 promoter activity: 147 ± 17
[3]
  L1 promoter activity: 171 ± 27
[4]
  L1 promoter activity: 219 ± 30
[11]
  L1 promoter activity: 182 ± 16
[12]
  L1 promoter activity: 198 ± 32

## CN(C)CCN(Cc1cccs1)c1ccccn1 [Methapyrilene]
[13]
  L1 promoter activity: 97.7 ± 2.8
[14]
  L1 promoter activity: 101 ± 25
[5]
  L1 promoter activity: 86.6 ± 8.4
[6]
  L1 promoter activity: 72.8 ± 12

## CN(Cc1cnc2nc(N)nc(N)c2n1)c1ccc(C(=O)N[C@@H](CCC(=O)O)C(=O)O)cc1 [Methotrexate]
[9]
  L1 promoter activity: 86.8 ± 9.6
[10]
  L1 promoter activity: 112 ± 36
[11]
  L1 promoter activity: 93.4 ± 13
[12]
  L1 promoter activity: 108 ± 48
Concentration (uM unless unit written): 200, treatment time: 6 h
  L1 promoter activity: 93.6 ± 12
Concentration (uM unless unit written): 200, treatment time: 24 h
  L1 promoter activity: 142 ± 41

## COS(C)(=O)=O [Methyl methanesulfonate]
[1]
  L1 promoter activity: 113 ± 11
[2]
  L1 promoter activity: 90.8 ± 4.2
[13]
  L1 promoter activity: 107 ± 15
[14]
  L1 promoter activity: 88.2 ± 13
[5]
  L1 promoter activity: 100 ± 12
[15]
  L1 promoter activity: 83.2 ± 4.5

## C[C@]12CCC(=O)C=C1CC[C@@H]1[C@@H]2CC[C@@]2(C)[C@H]1CC[C@]2(C)O [Methyltestosterone]
[16]
  L1 promoter activity: 94.7 ± 15
[17]
  L1 promoter activity: 73.9 ± 15
[3]
  L1 promoter activity: 108 ± 4.4
[4]
  L1 promoter activity: 74.5 ± 14
[11]
  L1 promoter activity: 98.5 ± 14
[12]
  L1 promoter activity: 85.3 ± 3.9

## CC(C)(C(=O)c1cccnc1)c1cccnc1 [Metyrapone]
[1]
  L1 promoter activity: 121 ± 7.4
[2]
  L1 promoter activity: 111 ± 11
[13]
  L1 promoter activity: 142 ± 18
[14]
  L1 promoter activity: 121 ± 11
[5]
  L1 promoter activity: 127 ± 3.5
[15]
  L1 promoter activity: 135 ± 14

## CC[C@H](C)C(=O)O[C@H]1CCC=C2C=C[C@H](C)[C@H](CC[C@@H]3C[C@@H](O)CC(=O)O3)[C@H]21 [Mevastatin]
[7]
  L1 promoter activity: 114 ± 22
[8]
  L1 promoter activity: 118 ± 31
[18]
  L1 promoter activity: 101 ± 24
[19]
  L1 promoter activity: 105 ± 12
[20]
  L1 promoter activity: 123 ± 43
[21]
  L1 promoter activity: 103 ± 18

## CO[C@@]12[C@H](COC(N)=O)C3=C(C(=O)C(C)=C(N)C3=O)N1C[C@@H]1N[C@@H]12 [Mitomycin C]
[22]
  L1 promoter activity: 119 ± 25
[23]
  L1 promoter activity: 131 ± 10
[9]
  L1 promoter activity: 96.4 ± 11
[10]
  L1 promoter activity: 114 ± 25

## COC(=O)C1=C(C)NC(C)=C(C(=O)OC)C1c1ccccc1[N+](=O)[O-] [Nifedipine]
[9]
  L1 promoter activity: 96.1 ± 10
[10]
  L1 promoter activity: 104 ± 8.8
[16]
  L1 promoter activity: 98.4 ± 2.3
[17]
  L1 promoter activity: 126 ± 5.6
[3]
  L1 promoter activity: 97.2 ± 12
[4]
  L1 promoter activity: 104 ± 7
[11]
  L1 promoter activity: 88.6 ± 24
[12]
  L1 promoter activity: 91.2 ± 2.6

## CC[C@H]1/C=C/C=C/C[C@@H](C)[C@H](O)[C@@](C)(O)C(=O)[C@@H](C)[C@H](O)[C@@H](C)C(=O)[C@@H](C)[C@H](O)[C@@H](C)/C=C/C(=O)O[C@@H]2[C@H](C)[C@H](CC1)O[C@]1(CC[C@H](C)[C@H](C[C@@H](C)O)O1)[C@H]2C [Oligomycin]
Concentration (uM unless unit written): 0.75, treatment time: 6 h
  L1 promoter activity: 89.6 ± 5.8
Concentration (uM unless unit written): 0.75, treatment time: 24 h
  L1 promoter activity: 82.1 ± 19
Concentration (uM unless unit written): 1.5, treatment time: 6 h
  L1 promoter activity: 82.5 ± 15
Concentration (uM unless unit written): 1.5, treatment time: 24 h
  L1 promoter activity: 77.2 ± 1.9

## CC(C)=CC(=O)C=C(C)C [Phorone]
[5]
  L1 promoter activity: 131 ± 16
[15]
  L1 promoter activity: 118 ± 21
[6]
  L1 promoter activity: 131 ± 6.7
Concentration (uM unless unit written): 1000, treatment time: 24 h
  L1 promoter activity: 118 ± 23

## CC[C@H](C)C(=O)O[C@H]1C[C@H](O)C=C2C=C[C@H](C)[C@H](CC[C@@H](O)C[C@@H](O)CC(=O)O)[C@H]21 [Pravastatin]
[24]
  L1 promoter activity: 130 ± 8.2
Concentration (uM unless unit written): 2500, treatment time: 24 h
  L1 promoter activity: 102 ± 7.9

## CC(=O)[C@H]1CC[C@H]2[C@@H]3CCC4=CC(=O)CC[C@]4(C)[C@H]3CC[C@]12C [Progesterone]
[16]
  L1 promoter activity: 101 ± 7.1
[17]
  L1 promoter activity: 81.7 ± 12
[3]
  L1 promoter activity: 90.4 ± 15
[4]
  L1 promoter activity: 67.8 ± 7.1
[11]
  L1 promoter activity: 73.7 ± 6.7

## CC(CN1c2ccccc2Sc2ccccc21)N(C)C (configuration not stated) [Promethazine hydrochloride]
[3]
  L1 promoter activity: 73.9 ± 13

## C=C(C)[C@H]1Cc2c(ccc3c2O[C@@H]2COc4cc(OC)c(OC)cc4[C@@H]2C3=O)O1 [Rotenone]
Concentration (uM unless unit written): 0.075, treatment time: 6 h
  L1 promoter activity: 113 ± 28
Concentration (uM unless unit written): 0.075, treatment time: 24 h
  L1 promoter activity: 90.8 ± 3.4
[9]
  L1 promoter activity: 97.8 ± 8.2
[3]
  L1 promoter activity: 93.6 ± 11

## NC(=O)c1ccccc1O [Salicylamide]
Concentration (uM unless unit written): 1250, treatment time: 6 h
  L1 promoter activity: 146 ± 22
Concentration (uM unless unit written): 1250, treatment time: 24 h
  L1 promoter activity: 175 ± 16
[24]
  L1 promoter activity: 139 ± 9.1
Concentration (uM unless unit written): 5000, treatment time: 6 h
  L1 promoter activity: 151 ± 25

## CCC(C)(C)C(=O)O[C@H]1C[C@@H](C)C=C2C=C[C@H](C)[C@H](CC[C@@H]3C[C@@H](O)CC(=O)O3)[C@H]21 [Simvastatin]
[7]
  L1 promoter activity: 94.1 ± 18
[8]
  L1 promoter activity: 100 ± 12
[18]
  L1 promoter activity: 93.1 ± 7.7
[19]
  L1 promoter activity: 117 ± 14
[20]
  L1 promoter activity: 108 ± 18
[21]
  L1 promoter activity: 107 ± 15

## CC(=O)S[C@@H]1CC2=CC(=O)CC[C@]2(C)[C@H]2CC[C@@]3(C)[C@@H](CC[C@@]34CCC(=O)O4)[C@H]12 [Spironolactone]
[7]
  L1 promoter activity: 104 ± 9.8
[8]
  L1 promoter activity: 89.3 ± 3.8
[18]
  L1 promoter activity: 97.8 ± 9.3
[19]
  L1 promoter activity: 100 ± 8.9
Concentration (uM unless unit written): 30, treatment time: 6 h
  L1 promoter activity: 88.5 ± 9.3
Concentration (uM unless unit written): 30, treatment time: 24 h
  L1 promoter activity: 111 ± 12

## CC1=C(CC(=O)O)c2cc(F)ccc2/C1=C\c1ccc([S+](C)[O-])cc1 (configuration not stated) [Sulindac]
[13]
  L1 promoter activity: 218 ± 44

## CC(=O)O[C@H]1C(=O)[C@@]2(C)[C@H]([C@H](OC(=O)c3ccccc3)[C@]3(O)C[C@H](OC(=O)[C@H](O)[C@@H](NC(=O)c4ccccc4)c4ccccc4)C(C)=C1C3(C)C)[C@]1(OC(C)=O)CO[C@@H]1C[C@@H]2O [Taxol]
[25]
  L1 promoter activity: 104 ± 17
[26]
  L1 promoter activity: 86.9 ± 18
[9]
  L1 promoter activity: 123 ± 35
[10]
  L1 promoter activity: 81.9 ± 11
Concentration (uM unless unit written): 20, treatment time: 6 h
  L1 promoter activity: 96.8 ± 14
Concentration (uM unless unit written): 20, treatment time: 24 h
  L1 promoter activity: 76.3 ± 13

## CCCc1nc2c(C)cc(-c3nc4ccccc4n3C)cc2n1Cc1ccc(-c2ccccc2C(=O)O)cc1 [Telmisartan]
Concentration (uM unless unit written): 1.25, treatment time: 6 h
  L1 promoter activity: 104 ± 11
Concentration (uM unless unit written): 1.25, treatment time: 24 h
  L1 promoter activity: 112 ± 8
[22]
  L1 promoter activity: 105 ± 8.6
[23]
  L1 promoter activity: 114 ± 9.7
[25]
  L1 promoter activity: 115 ± 3.5
[26]
  L1 promoter activity: 114 ± 9
[9]
  L1 promoter activity: 119 ± 15
[10]
  L1 promoter activity: 119 ± 3.6

## Clc1ccccc1CN1CCc2sccc2C1 [Ticlopidine]
[9]
  L1 promoter activity: 117 ± 5.9
[10]
  L1 promoter activity: 124 ± 4.8
[16]
  L1 promoter activity: 107 ± 9.2
[17]
  L1 promoter activity: 104 ± 9.1
[3]
  L1 promoter activity: 96.2 ± 12
[4]
  L1 promoter activity: 113 ± 22
[11]
  L1 promoter activity: 97.5 ± 13
[12]
  L1 promoter activity: 129 ± 11

## NS(=O)(=O)c1cc2c(cc1Cl)NC(C(Cl)Cl)NS2(=O)=O (configuration not stated) [Trichlormethiazide]
[11]
  L1 promoter activity: 103 ± 10
[12]
  L1 promoter activity: 66.9 ± 13
[13]
  L1 promoter activity: 108 ± 17
[14]
  L1 promoter activity: 59.6 ± 9.6
[5]
  L1 promoter activity: 102 ± 6.6
[6]
  L1 promoter activity: 99.7 ± 27

Reference: the supplement of paper PMC3770661
